Where “and” joins values, the source holds several entries; their conditions need not be identical. Equal values may be shown once.
Key:
NLRP3 = test: Inflammasome stimulation (IL-1β, LDH release) in BMDCs from NLRP3 knockout or ASC knockout mice; format: cell-based, mouse; conditions: IL-1β and LDH release
Method: (§1) For canonical inflammasome activation BMDCs after 7-9 days of differentiation were harvested and counted with a Neubauer Chamber (Hecht Assistant) and the concentration was set to 1 Mio cells ml^−1. 100 μl cell suspension per well were seeded in 96-well plates. The cells were primed with 50 ng ml^−1 E. coli K12 ultra-pure LPS for 3 hours and subsequently treated with canonical inflammasome activators or experimental compounds for 3 hours if not indicated differently (incubation time FIG. 4D, 5, 7, 8, 11, 13-18: 3 h, FIG. 12: 4 h). Concentrations of the stimuli were as follows if not indicated differently: 5 μM nigericin, 100 μM imiquimod (also known as R837), 100 μM CL097, 100 μM R848, […] poly(dA:dT), 300 μg ml^−1 MSU. If an inhibitor was used before stimuli treatment, the inhibitor was added after 2.5 hours of priming and it was incubated for 30 minutes before inflammasome activation. Inhibitors were used as follows: 3 μM MCC950, 45 mM KCl, 30 μM ebselen (2-Phenyl-1,2-benzoselenazol-3-one), 5 μM cytochalasin D (see FIGS. 8, 11, 12 and 17).
(§2) All inflammasome stimulations were performed in three technical replicates for each condition. Lytic cell death was determined via LDH release (see FIGS. 8, 13-16 and 18), cytokines quantified in cell-free supernatants via ELISA (see FIGS. 4D, 7-9, 11-19) and cell lysates and supernatants analyzed via immunoblotting (see FIGS. 5A and 5B) as previously described in detail (Gross, Olaf, 2012 “Measuring the inflammasome”, Methods in molecular biology, Clifton, N.J., 844, pp. 199-222. Schneider, Katharina S.; Thomas, Christina J.; Groß, Olaf, 2013, “Inflammasome activation and inhibition in primary murine bone marrow-derived cells, and assays for IL-1α, IL-1β, and caspase-1”, Methods in molecular biology, Clifton, N.J., 1040, pp. 117-135).

NLRP3 inflammasome [1] = target: T1, NLRP3 inflammasome (Mus musculus, UniProt Q8R4B8); test: Inflammasome stimulation of BMDCs after pre-incubation with inhibitors (MCC950, KCl, ebselen, cytochalasin D); format: cell-based
T1 construct: endogenous in cells; host or cells: primary mouse bone marrow-derived dendritic cells (BMDCs), LPS-primed
T1 sequence (Q8R4B8 whole entry): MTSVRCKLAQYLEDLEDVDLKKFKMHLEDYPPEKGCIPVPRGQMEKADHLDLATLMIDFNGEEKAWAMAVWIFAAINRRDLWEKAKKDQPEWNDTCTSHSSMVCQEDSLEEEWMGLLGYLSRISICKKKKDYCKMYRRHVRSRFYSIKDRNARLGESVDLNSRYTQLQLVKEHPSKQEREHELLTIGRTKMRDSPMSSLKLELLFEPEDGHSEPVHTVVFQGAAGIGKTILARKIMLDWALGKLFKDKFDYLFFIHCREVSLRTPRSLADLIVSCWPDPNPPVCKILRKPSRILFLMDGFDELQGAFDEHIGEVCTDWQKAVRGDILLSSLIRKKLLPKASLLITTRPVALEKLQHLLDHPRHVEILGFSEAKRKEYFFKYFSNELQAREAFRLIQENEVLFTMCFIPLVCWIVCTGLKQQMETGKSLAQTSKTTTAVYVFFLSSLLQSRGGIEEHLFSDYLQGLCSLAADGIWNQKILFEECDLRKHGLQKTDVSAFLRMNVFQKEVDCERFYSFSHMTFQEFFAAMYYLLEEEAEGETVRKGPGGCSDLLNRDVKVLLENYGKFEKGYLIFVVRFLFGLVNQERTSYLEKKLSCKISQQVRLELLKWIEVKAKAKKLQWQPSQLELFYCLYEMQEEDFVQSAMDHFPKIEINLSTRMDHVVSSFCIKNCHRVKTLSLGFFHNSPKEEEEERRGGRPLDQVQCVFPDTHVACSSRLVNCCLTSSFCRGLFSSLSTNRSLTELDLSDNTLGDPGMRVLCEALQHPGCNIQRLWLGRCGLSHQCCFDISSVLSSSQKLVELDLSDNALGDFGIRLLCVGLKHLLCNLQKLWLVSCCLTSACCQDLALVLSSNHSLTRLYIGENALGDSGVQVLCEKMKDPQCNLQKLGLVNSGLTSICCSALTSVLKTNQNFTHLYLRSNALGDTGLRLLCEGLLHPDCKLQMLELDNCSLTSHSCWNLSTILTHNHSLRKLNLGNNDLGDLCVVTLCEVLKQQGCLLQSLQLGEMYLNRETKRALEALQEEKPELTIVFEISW
Method: as §1, with “Inhibitors were used as follows: 3 μM MCC950, 45 mM KCl, 30 μM ebselen (2-Phenyl-1,2-benzoselenazol-3-one), 5 μM cytochalasin D (see FIGS. 8, 11, 12 and 17).” left out
as §2

NLRP3 inflammasome [2] = target: T1, NLRP3 inflammasome; test: IL-1β release from LPS-primed BMDCs (ELISA) as readout of NLRP3 inflammasome activation; format: cell-based
Outline: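 NLRP3 inflammasome activation was read out as IL-1β released into the supernatant, measured by ELISA. Murine BMDCs were primed with LPS (50 ng ml^−1, 3 hours), then incubated with compounds for 3 hours, with each condition run in three technical replicates. Nigericin at 5 μM acted as the positive control activator, and IL-1β release was also expressed as a percentage of that control.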

O=C(Nc1ccccc1)Nc1ccc2ncccc2c1 [EN22, 1-phenyl-3-(quinolin-6-yl)urea]
characteristics of inflammasome activation in cells isolated from NLRP3 knockout mice (NLRP3): do not occur | dependence of NLRP3 inflammasome activation on potassium efflux from the cell (NLRP3 inflammasome [1]; 50 mM extracellular KCl, FIGS. 11 and 17): independently of potassium efflux | effect of the endocytosis inhibitor cytochalasin D on NLRP3 activation (NLRP3 inflammasome [1]; LPS-primed wild-type BMDCs, FIG. 12): has no effect | effect of the NLRP3-specific inhibitor MCC950 on inflammasome activation by the compound (NLRP3 inflammasome [1]; wild-type BMDCs, compound 50 μM, FIG. 8): completely suppresses | Average IL-1β (NLRP3 inflammasome [2]; 10 μM): 10.000 ng/mL | IL-1β (NLRP3 inflammasome [2]; 10 μM, individual replicate values): 10.000 ng/mL | Average IL-1β (NLRP3 inflammasome [2]; 18.75 μM): 6.322 ng/mL | IL-1β (NLRP3 inflammasome [2]; 18.75 μM, individual replicate values): 7.071 ng/mL and 5.864 ng/mL and 6.030 ng/mL | Average IL-1β (NLRP3 inflammasome [2]; 25 μM, EN11 series table): 1.474 ng/mL | IL-1β (NLRP3 inflammasome [2]; 25 μM, individual replicate values, EN11 series table): 1.387 ng/mL and 1.391 ng/mL and 1.646 ng/mL | time after which inflammasome activation is almost maximum (NLRP3 inflammasome [2]; BMDCs from wild-type mice without inhibitor): 30 min | EC50 for induction of IL-1β, times lower than for imiquimod and CL097 (NLRP3 inflammasome [2]; BMDCs, FIG. 4D): 10 times | Average (% positive control) (NLRP3 inflammasome [2]; IL-1β release, compound 50 μM, positive control nigericin 5 μM): 128.957 % positive control | Average (% positive control) (NLRP3 inflammasome [2]; IL-1β, 10 μM, positive control EN22 10 μM): 100.000 % positive control | Average (% positive control) (NLRP3 inflammasome [2]; IL-1β, 18.75 μM, positive control EN22 18.75 μM): 100.000 % positive control | Average (% positive control) (NLRP3 inflammasome [2]; IL-1β, 25 μM, positive control EN22 25 μM): 100.000 % positive control | Average (% positive control) (NLRP3 inflammasome [2]; IL-1β, concentration not given, positive control EN22): 100.000 % positive control | Average IL-1β (NLRP3 inflammasome [2]; compound 50 μM, LPS-primed BMDCs): 9.244 ng/mL | Average IL-1β (NLRP3 inflammasome [2]; concentration not given, JB series table): 1.957 ng/mL | IL-1β (NLRP3 inflammasome [2]; concentration not given, individual replicate values, JB series table): 1.632 ng/mL and 2.095 ng/mL and 2.146 ng/mL | Average IL-1β (NLRP3 inflammasome [2]; section 1.2, 25 μM): 5.026 ng/mL | Average (% positive control) (NLRP3 inflammasome [2]; section 1.2, IL-1β release, 25 μM, positive control EN22 25 μM): 100.000 % positive control | IL-1β (NLRP3 inflammasome [2]; section 1.2, single replicates, 25 μM): 4.821 ng/mL and 5.196 ng/mL and 5.062 ng/mL | IL-1β (NLRP3 inflammasome [2]; single replicates, compound 50 μM, LPS-primed BMDCs): 8.679 ng/mL and 9.014 ng/mL and 9.589 ng/mL and 8.363 ng/mL and 10.000 ng/mL and 9.819 ng/mL

Source: patent publication US20240277658A1, “NLRP3 ACTIVATORS FOR USE IN THE TREATMENT OF INFECTIOUS DISEASES OR CANCER BY ACTIVATING NLRP3 INFLAMMASOME” (ALBERT-LUDWIGS-UNIVERSITÄT FREIBURG, priority 2020, published 2024)
